Laboratory results from BindingDB's records for doi:10.1021/jm300535s (Leipzig University, 2012).

Target: Neuropeptide FF receptor 1 (Homo sapiens, UniProt Q9GZQ6)
Assay: Competitive antagonist activity at human NPFF1 receptor expressed in COS1 cells assessed as inhibition of NPVF-induced [3H]inositol phosphate accumulation after 2 hrs by liquid scintillation counting

Neuropeptide FF receptor 1, sequence (Q9GZQ6 whole entry): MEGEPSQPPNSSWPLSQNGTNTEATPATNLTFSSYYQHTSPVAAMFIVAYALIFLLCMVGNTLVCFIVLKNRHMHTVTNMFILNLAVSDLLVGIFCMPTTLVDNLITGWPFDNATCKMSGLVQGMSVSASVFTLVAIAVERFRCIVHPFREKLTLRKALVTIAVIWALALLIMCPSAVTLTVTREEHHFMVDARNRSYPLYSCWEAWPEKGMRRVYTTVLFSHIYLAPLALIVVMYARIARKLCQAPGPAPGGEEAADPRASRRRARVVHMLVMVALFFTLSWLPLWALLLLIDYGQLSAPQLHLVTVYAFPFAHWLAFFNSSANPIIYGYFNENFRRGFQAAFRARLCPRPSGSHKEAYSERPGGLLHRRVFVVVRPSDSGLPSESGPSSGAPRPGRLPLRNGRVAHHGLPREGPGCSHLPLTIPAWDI

Which Kd does the source give for `NC(N)=NN=CC12CC3CC(CC(C3)C1)C2` here?
Its Kd is 0.0417 µM.
